Laboratory results taken from patent US20150093744A1 (priority 2013, published 2015).
Values joined by “and” are separate entries in the source; they are usually repeats but may differ in a detail not shown here. Identical values can stand only once. Like-named read-outs stand apart in the source and are kept apart here.

Key:
Tulane virus (TV) [1] = test system: Tulane virus (TV)
Tulane virus (TV) [2] = test system: Tulane virus (TV); remark: listed apart in the source
Tulane virus (TV) [3] = test system: Tulane virus (TV); remark: listed apart in the source
[4] = test system: Tulane virus capsid binding to Human Blood Group Antigen (HBGA) receptor
FCV = settings: cited from earlier work
MNV = settings: cited from earlier work
TV = settings: cited from earlier work

CCO [EtOH, ethanol]
detection of virus genome or amplification of virus (Tulane virus (TV) [1]): neither virus genome nor amplification of virus was detectable
reduction of TV titer (Tulane virus (TV) [2]): over 99.5%
detection of virus genome or amplification of virus (Tulane virus (TV) [3]): neither virus genome nor amplification of virus was detectable
Binding of viral capsid to Human Blood Group Antigen (HBGA) [4]: significantly reduced
Ct (HuNoV (GII.4 NoV)): 40.7 ± 1.4
Reduction(%) (HuNoV (GII.4 NoV)): 99.3 ± 0.8%
completeness of inactivation of HuNoV (HuNoV (GII.4 NoV)): not complete
reduction in copy number (HuNoV (GII.4 NoV)): 99.33% and 88.5% and 99.3%
reduction in copy numbers (HuNoV (GII.4 NoV)): < 3 log
ΔCt (HuNoV (GII.4 NoV)): 9.7
EtOH concentration required to exceed 4 D reduction in virus titer (FCV): 70%
EtOH concentration required to exceed 4 D reduction in virus titer (MNV): 60%
EtOH concentration required to exceed 4 D reduction in virus titer (TV): 50-70%
